Source: US7745574B2, “Compounds that regulate apoptosis” (The Burnham Institute, priority 2005, dated 2010)
[ ]: non-standard residue; d: D form. Ahx = NCCCCCC(=O)O

Tests used:
[1] = system: H460 lung cancer cells; experiment: Apoptosis in H460 lung cancer cells; assay type: cell-based
Protocol: Bcl-2 siRNAs and antisense oligonucleotides-The target siRNA SMARTpools for Bcl-2 and Bak and the siRNA oligonucleotide for Nur77 (5'-[…] NO: 67) were purchased from Dharmacon Research Inc. Target or control siRNA were transfected at a final concentration of 200 nM into cells at 40% confluency using Oligofectamine reagent (Invitrogen) according to the manufacturer's recommendations. After 48 h, cells were analyzed. Bcl-2 antisense oligonucleotide targeting Bcl-2 and negative control oligonucleotides were obtained from Calbiochem. […] The percentages of apoptotic cells were determined by counting 300 GFP-positive cells, scoring cells having nuclear fragmentation and/or chromatin condensation. Cell culture. […] HEK293T embryonic kidney cells were grown in DME medium supplemented with 10% FBS. Jurkat and Jurkat cells stably expressing Bcl-2 were kindly provided by Dr. John Reed, and they were maintained in RPMI1640 medium.

[2] = system: MDA-MB435 breast carcinoma cells; experiment: MDA-MB435 tumors in SCID mice; assay type: in vivo
Protocol: Animal studies. Female SCID mice (6-week-old) (Tacomic) were injected with 10^6 MDA-MB435 breast carcinoma cells. Tumors were palpable on day 7. On days 10 and 13, test peptides (620 μg in 50 μL PBS) were injected into the tumor areas of 5 mice. Tumor volumes (1×w^2) were determined using calipers. No weight changes were observed. Established tumors in control mice were injected with test peptides and tumor tissues were excised and sectioned after 3 days. Tissues were fixed (10% buffered formalin), then rapidly paraffin-embedded. Apoptosis was detected by the TUNEL assay.

[3] = system: breast cancer; experiment: Treatment of a patient diagnosed with breast cancer; assay type: in vivo; settings: intravenous dose at regular intervals over six weeks
From the text: A patient diagnosed with breast cancer is selected for treatment with the D-NuBCP-9-r8 peptide. The patient is given a therapeutically effective intravenous dose of the peptide at regular intervals over a six week period. Following the end of the treatment period it is observed that the breast cancer has regressed.

[4] = system: H460 lung cancer cells; experiment: Apoptosis in H460 lung cancer cells; assay type: cell-based; settings: H460 cells; peptides conjugated with CPP, 10 μM
[5] = biological target: T1, Bcl-2 (Homo sapiens, UniProt P10415); experiment: Competition assay of Nur77/ΔDBD binding with Bcl-2; set-up: expressed in transfected cells; host or cells: HEK293T
Protocol: Nur77/Bcl-2 interaction assays—Reporter gene assays using NurRE-tk-CAT in CV-1 cells, and GST pull-down assay were described previously (Li, et al. 2000 Science 289:1159-1164). For the mammalian two-hybrid assays, CV-1 cells were co-transfected with pcDNA-Gal4TAD-Nur77 or pcDNA-Gal4TAD-Nur77/ΔDBD and pcDNA-Gal4 DBD-Bcl-2/ΔTM along with a luciferase reporter gene driven by four copies of the Gal-4-binding site. The cells were harvested and reporter gene activity was measured. For Co-IP assays, HEK293T cells were transiently transfected with various expression plasmids using a modified calcium phosphate precipitation method (Wu et al, 1997) in the presence of caspase inhibitors (zVAD-fmk) to prevent degradation of Nur77 protein due to apoptosis. Cells were suspended in lysis buffer (50 mM Tris-HCl, PH7.4; 150 mM NaCl; 20 mM EDTA; 1% NP-40; 1 mM PMSF; 50 μg/ml Leupeptin; […] Aprotinin; 0.1 mM Na3VO4; and 1 mM DTT). Cells extracts were cleared by incubation with the Protein A/G plus Agarose beads (Santa Cruz) and then incubated with appropriate antibody and 30 μl of Protein A or G plus Agarose beads overnight at 4° C. […] Immunoreactive products were detected by chemiluminescence with an enhanced chemiluminescence system (ECL) (Amersham).
Target sequence in this assay (P10415 whole entry, the tested form may be a part): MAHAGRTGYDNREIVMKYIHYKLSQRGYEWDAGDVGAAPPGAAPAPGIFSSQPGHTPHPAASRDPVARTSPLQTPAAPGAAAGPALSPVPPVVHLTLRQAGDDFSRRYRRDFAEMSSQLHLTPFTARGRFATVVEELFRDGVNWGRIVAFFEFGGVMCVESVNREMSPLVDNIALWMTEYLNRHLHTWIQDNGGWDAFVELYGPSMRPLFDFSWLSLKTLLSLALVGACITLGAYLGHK

[6] = biological target: T1, Bcl-2; experiment: Bcl-2 conformational change, anti-Bcl-2/BH3 antibody staining of HEK293T cells transfected with Bcl-2; assay type: cell-based; set-up: expressed in transfected cells; host or cells: HEK293T
Protocol: Such a Bcl-2 conformation is recognized by an anti-Bcl-2 antibody raised against the Bcl-2 BH3 domain. To determine whether NuBCP-9 induced a Bcl-2 conformational change, flow cytometric assays were conducted which HEK293T cells transfected with Bcl-2 were exposed to NuBCPs and subsequently stained with the anti-Bcl-2/BH3 antibody.
Target sequence in this assay (P10415 whole entry, the tested form may be a part): as above

[7] = biological target: T1, Bcl-2; experiment: Immunoprecipitation of endogenous Bcl-2 by anti-Bcl-2/BH3 antibody in treated cells; assay type: cell-based; set-up: precipitated endogenous Bcl-2 in cells treated with L-NuBCP-9-r8 or D-NuBCP-9-r8; endogenous in cells
Target sequence in this assay (P10415 whole entry, species assumed, the tested form may be a part): as the sequence (P10415 whole entry, the tested form may be a part) above

binding of Nur77/ΔDBD with Bcl-2 in presence of peptide [5]: abrogated
Bcl-2 immunofluorescence by anti-Bcl-2/BH3 antibody ([6]; flow cytometry): strong Bcl-2 immunofluorescence
Bcl-2 staining by anti-Bcl-2/BH3 antibody ([6]; fluorescence microscopy): strongly stained
precipitation of endogenous Bcl-2 by anti-Bcl-2/BH3 antibody [7]: precipitated
Substance: acetyl------------fsrslhsllGXrrrrrrrr-amide (Ac-[dF][dS][dR][dS][dL][dH][dS][dL][dL]G[Ahx][dR][dR][dR][dR][dR][dR][dR][dR]-NH2; SMILES CC(=O)N[C@H](Cc1ccccc1)C(=O)N[C@H](CO)C(=O)N[C@H](CCCNC(=N)N)C(=O)N[C@H](CO)C(=O)N[C@H](CC(C)C)C(=O)N[C@H](Cc1c[nH]cn1)C(=O)N[C@H](CO)C(=O)N[C@H](CC(C)C)C(=O)N[C@H](CC(C)C)C(=O)NCC(=O)NCCCCCC(=O)N[C@H](CCCNC(=N)N)C(=O)N[C@H](CCCNC(=N)N)C(=O)N[C@H](CCCNC(=N)N)C(=O)N[C@H](CCCNC(=N)N)C(=O)N[C@H](CCCNC(=N)N)C(=O)N[C@H](CCCNC(=N)N)C(=O)N[C@H](CCCNC(=N)N)C(=O)N[C@H](CCCNC(=N)N)C(N)=O) [D-NuBCP-9-r8]
apoptotic function after Bcl-2 antisense oligonucleotides ([1]; Bcl-2 antisense oligonucleotides): attenuated
apoptotic effect after transfection of Bcl-2 siRNA ([1]; H460 cells, Bcl-2 siRNA vs control GFP siRNA): inhibited
growth of tumors ([2]; SCID mice, 620 μg injected into tumor areas on days 10 and 13, vs control NuBCP-9/AA-r8): dramatically suppressed
apoptosis of tumor cells in vivo ([2]; TUNEL assay): potently induced
breast cancer outcome after treatment [3]: regressed
apoptotic effect [4]: retained and even slightly enhanced
